# Experimental data from PubChem BioAssay (NCI).
#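 All cell lines were grown in 96-well plates and treated with compound for 48 hours. Definition used: TGI = concentration required for complete inhibition of growth.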
# How the values were obtained:
# Test in all cases: NCI tumour cell line growth inhibition, 48 h
# HT29 colon = test system: HT29 colon
# SN12C renal = test system: SN12C renal
# A498 renal = test system: A498 renal
# EKVX NSCLC = test system: EKVX NSCLC
# UACC-257 melanoma = test system: UACC-257 melanoma
# A549 NSCLC = test system: A549 NSCLC
# NCI-H522 lung = test system: NCI-H522 lung
# MDA-N = test system: MDA-N
# MDA-MB-231 breast = test system: MDA-MB-231 breast
# HCC-2998 colon = test system: HCC-2998 colon
# SK-MEL-28 melanoma = test system: SK-MEL-28 melanoma
# CCRF-CEM leukemia = test system: CCRF-CEM leukemia
# NCI-H460 lung = test system: NCI-H460 lung
# OVCAR-5 ovarian = test system: OVCAR-5 ovarian
# RPMI-8226 leukemia = test system: RPMI-8226 leukemia
# NCI/ADR-RES ovarian = test system: NCI/ADR-RES ovarian
# MOLT-4 leukemia = test system: MOLT-4 leukemia
# OVCAR-4 ovarian = test system: OVCAR-4 ovarian
# HCT-15 colon = test system: HCT-15 colon
# MDA-MB-435 = test system: MDA-MB-435
SMILES,TGI (HT29 colon) [µM],TGI (SN12C renal) [µM],TGI (A498 renal) [µM],TGI (EKVX NSCLC) [µM],TGI (UACC-257 melanoma) [µM],TGI (A549 NSCLC) [µM],TGI (NCI-H522 lung) [µM],TGI (MDA-N) [µM],TGI (MDA-MB-231 breast) [µM],TGI (HCC-2998 colon) [µM],TGI (SK-MEL-28 melanoma) [µM],TGI (CCRF-CEM leukemia) [µM],TGI (NCI-H460 lung) [µM],TGI (OVCAR-5 ovarian) [µM],TGI (RPMI-8226 leukemia) [µM],TGI (NCI/ADR-RES ovarian) [µM],TGI (MOLT-4 leukemia) [µM],TGI (OVCAR-4 ovarian) [µM],TGI (HCT-15 colon) [µM],TGI (MDA-MB-435) [µM]
Oc1cccc2cc(Br)cnc12,> 73.1,> 100,> 85,99,27.3,> 100,9.18,> 100,> 47.1,96.9,> 100,7.81,> 70.8,> 100,> 31.4,20.6,14.9,> 30.4,> 100,> 100
O=C(NC(Nc1ccc(F)cc1)(C(F)(F)F)C(F)(F)F)C(C(F)(F)F)C(F)(F)F,> 100,> 100,> 100,> 100,> 100,> 100,> 89.6,> 100,> 100,> 100,> 100,19.7,> 100,> 100,60,> 100,36.2,> 43.9,> 100,> 100
O=C(NCCN1CCCCC1)c1ccc(I)cc1,> 100,> 100,69.3,> 100,> 100,> 100,> 100,> 100,> 100,> 100,> 100,> 100,> 100,> 100,> 100,> 100,> 100,> 100,> 100,> 100
CCN(CC)/[N+]([O-])=N/OCOC(C)=O,> 100,> 100,> 100,> 100,> 100,> 100,> 100,> 100,> 100,> 100,> 100,> 100,> 100,> 100,> 100,> 100,> 100,> 100,> 100,> 100
CC1Cc2cc(O)c(O)cc2-c2cc(O)c(O)cc2CC1C (stereo not given),63.9,49,56.8,96.2,29.1,71.1,49.8,11.7,24.5,43.1,43.6,> 100,42.7,45.6,> 100,38.4,32.3,33.9,36.1,10.5
O=C1N[C@@H]2c3c(Br)sc(Br)c3C(=O)[C@@H]2O1,3.59,8.1,30.4,4.44,8.76,32.6,1.53,6.44,5.83,10.8,6.64,3.94,27.7,27,25.4,18,4.61,3.43,4.05,6.33
Oc1ccccc1C1=NOC(c2ccc(C(F)(F)F)cc2)C1 (stereo not given),> 50,> 50,> 50,> 50,> 50,> 50,> 50,> 50,> 50,> 50,> 50,> 50,> 50,> 50,> 50,> 50,> 50,> 50,> 50,> 50
CO[C@@H]1C[C@H]2N3CC[C@@]2(c2cc4c(cc2C3)OCO4)[C@H]2O[C@@H]12,> 100,> 100,> 100,> 100,> 100,> 100,> 100,> 100,> 100,> 100,> 100,> 100,> 100,> 100,> 100,> 100,> 100,> 100,> 100,> 100
O=c1c2cc(I)ccc2nc(SCc2n[nH]c(=S)o2)n1Cc1ccccc1,66.2,27.6,34.2,40.8,38.1,48.4,27.8,32,33.3,35.3,32.3,43.8,39.5,52.4,> 100,54.2,65.3,44.4,34,44.4
CC(C)(C)OC(=O)C1=C2C=C(O)C=CC2(C)N(Cc2ccccc2)C1=N (stereo not given),14,25.5,26.2,11.5,18.7,28.1,4,20.2,21.6,29.3,24.8,> 38.2,34.7,33.1,> 27.1,> 82.8,> 32.7,19.1,14.9,21.5
Nc1c(N2CCOCC2)c(=O)nc2[nH]/c(=C\c3ccccc3)c(=O)n12,> 100,> 100,> 100,> 100,> 100,> 100,> 100,> 100,> 100,> 100,> 100,> 100,> 100,> 100,> 100,> 100,> 100,> 100,> 100,> 100
Clc1ccc(-c2ccc(-c3nnc(COc4ccc(OCc5nnc(-c6ccc(-c7ccc(Cl)cc7Cl)o6)o5)c(Cl)c4)o3)o2)c(Cl)c1,> 100,> 100,> 100,> 100,> 100,> 100,> 100,> 100,> 100,> 100,> 100,67.1,> 100,> 100,> 100,> 100,64.2,> 100,> 100,> 100
